The values below come from paper PMC9000871, “Rhodamine 101 Conjugates of Triterpenoic Amides Are of Comparable Cytotoxicity as Their Rhodamine B Analogs” (Molecules, 2022).

Data set [1] deals with HT29 (colon adenocarcinoma). Nature of the data set: SRB cytotoxicity assay, HT29. Type of data set: cell-based, human. The following applies: Homo sapiens, HT-29, 72 h, 72 h of treatment, mean ± standard mean error. From the text:
(§1) The cell lines were obtained from Department of Oncology (Martin-Luther-University Halle Wittenberg; they were bought from ATCC; A 375 (CRL-1619), HT29 (HTB-38), MCF7 (HTM-22), A2780 (HTP-77), FaDu (HTP-43), NIH 3T3 (CRL-1658), HEK-293 (CRL-1573)). Cultures were maintained as monolayers in RPMI 1640 medium with L-glutamine (Capricorn Scientific GmbH, Ebsdorfergrund, Germany) supplemented with 10% heat inactivated fetal bovine serum (Sigma-Aldrich Chemie GmbH, Steinheim, Germany) and penicillin/streptomycin (1%, Capricorn Scientific GmbH, Ebsdorfergrund, Germany) at 37 °C in a humidified atmosphere with 5% CO2. The cytotoxicity of the compounds was evaluated using the sulforhodamine-B (Kiton-Red S, ABCR) micro culture colorimetric assay using confluent cells in 96-well plates with the seeding of the cells on day 0 applying appropriate cell densities to prevent confluence of the cells during the period of the experiment. On day 1, the cells were treated with six different concentrations (1, 3, 7, 12, 20, and 30 μM); thereby, the final concentration of DMSO was always <0.5%, generally regarded as non-toxic to the cells. On day 4, the supernatant medium was discarded; the cells were fixed with 10% trichloroacetic acid. After another day at 4 °C, the cells were washed in a strip washer and dyed with the SRB solution (100 μL, 0.4% in 1% acetic acid) for about 20 min to be followed by washing of the plates (four times, 1% acetic acid) and air-drying overnight. Furthermore, tris base solution (200 μL, 10 mM) was added to each well and absorbance was measured at λ = 570 nm employing a reader (96 wells, Tecan Spectra, Crailsheim, Germany). The EC50 values were averaged from three independent experiments performed each in triplicate calculated from semi logarithmic dose response curves applying a non-linear four-parameter Hills-slope equation (GraphPad Prism5; variables top and bottom were set to 100 and 0, respectively).
A general note: The SRB assay estimates cell density from bound dye.

A further data set deals with A375 (melanoma). Nature of the data set: SRB cytotoxicity assay, A375. Type of data set: cell-based, human. As to conditions: Homo sapiens, A-375, 72 h, 72 h of treatment, mean ± standard mean error.
From the text: as §1

For data set [2], the system named is NIH 3T3 (fibroblasts), non-malignant. The data set can be described thus: SRB cytotoxicity assay, NIH 3T3. Type of data set: cell-based. The following applies: Mus musculus, NIH3T3, 72 h, 72 h of treatment, mean ± standard mean error.
From the text: as §1

Data set [3] has as its system A2780 (ovarian carcinoma). The data set can be described thus: SRB cytotoxicity assay, A2780. Type of data set: cell-based. As to conditions: Homo sapiens, 72 h of treatment, mean ± standard mean error.
From the text: as §1

In data set [4] the test system is MCF-7 (breast adenocarcinoma). Nature of the data set: SRB cytotoxicity assay, MCF-7. Type of data set: cell-based. As to conditions: Homo sapiens, MCF7, 72 h of treatment, mean ± standard mean error.
From the text: as §1

SMILES strings stand for the structures. Where a name gives a salt, the structure may show the parent alone.

Consider `C=C(C)[C@@H]1CC[C@]2(C(=O)N3CCCN(C(=O)c4ccccc4-c4c5ccc(=[N+](CC)CC)cc-5oc5cc(N(CC)CC)ccc45)CC3)CC[C@]3(C)C(CCC4[C@@]5(C)CC[C@H](OC(C)=O)C(C)(C)C5CC[C@]43C)C12` (stereo partly drawn) (as salt: chloride) (hydrate or solvate) [compound 17, 9-[2-[[4-(3β-Acetyloxy-28-oxo-30-norlupan-28-yl)-1-homopiperazinyl]carbonyl]phenyl]-3,6-bis(diethylamino)-xanthylium chloride], for which the melting point – broadly, the temperature, or range, at which the solid turns liquid – fell in the range of 261 to 266 °C.

With `CCN(CC)c1ccc2c(-c3ccccc3C(=O)N3CCCN(C(=O)[C@]45CCC(C)(C)CC4C4=CCC6[C@@]7(C)CC[C@H](OC(C)=O)C(C)(C)C7CC[C@@]6(C)[C@]4(C)CC5)CC3)c3ccc(=[N+](CC)CC)cc-3oc2c1` (stereo partly drawn) (as salt: chloride) (hydrate or solvate) [compound 18, 9-[2-[[4-(3β-Acetyloxy-28-oxo-olean-12-en-28-yl]-1-homopiperazinyl]carbonyl]phenyl]-3,6-bis(diethylamino)-xanthylium chloride], the melting point is 235 to 241 °C.

`CCN(CC)c1ccc2c(-c3ccccc3C(=O)N3CCCN(C(=O)[C@]45CC[C@@H](C)[C@H](C)C4C4=CCC6[C@@]7(C)CC[C@H](OC(C)=O)C(C)(C)C7CC[C@@]6(C)[C@]4(C)CC5)CC3)c3ccc(=[N+](CC)CC)cc-3oc2c1` (stereo partly drawn) (as salt: chloride) (hydrate or solvate) [compound 19, 9-[2-[[4-(3β-Acetyloxy-28-oxo-urs-12-en-28-yl]-1-homopiperazinyl]carbonyl]phenyl]-3,6-bis(diethylamino)-xanthylium chloride] yielded a melting point of 238 to 246 °C.

`C=C(C)[C@@H]1CC[C@]2(C(=O)N3CCN(C(=O)c4ccccc4-c4c5ccc(=[N+](CC)CC)cc-5oc5cc(N(CC)CC)ccc45)CC3)CC[C@]3(C)C(CCC4[C@@]5(C)CC[C@H](OC(C)=O)C(C)(C)C5CC[C@]43C)C12` (stereo partly drawn) (as salt: chloride) [compound 13, 9-[2-[[4-(3β-Acetyloxy-28-oxo-lup-20(29)en-28-yl)-1-piperazinyl]carbonyl]phenyl]-3,6-bis(diethylamino)-xanthylium chloride] displayed a melting point of 247 to 252 °C.

`C=C(C)[C@@H]1CC[C@]2(C(=O)N3CCNCC3)CC[C@]3(C)C(CCC4[C@@]5(C)CC[C@H](OC(C)=O)C(C)(C)C5CC[C@]43C)C12` (stereo partly drawn) [compound 5, 3β-Acetyloxy-28-(1-piperazinyl)-lup-20(29)en-28-one]: the EC50 (usually the concentration needed to bring the measured effect to its halfway point) in data set [1] was 1000 ± 100 nM; with A375 (melanoma), 1500 ± 300 nM; in data set [2] it was 900 ± 100 nM; in data set [3], 1900 ± 100 nM; in data set [4], 1400 ± 100 nM.

In the case of `C=C(C)[C@@H]1CC[C@]2(C(=O)N3CCCNCC3)CC[C@]3(C)C(CCC4[C@@]5(C)CC[C@H](OC(C)=O)C(C)(C)C5CC[C@]43C)C12` (stereo partly drawn) [compound 9, 3β-Acetyloxy-28-(1-homopiperazinyl)-lup-20(29)en-28-one], the EC50 in data set [1] came out at 5100 ± 1100 nM; in the data set on A375 (melanoma) it was 18700 ± 1600 nM; in data set [2], 18700 ± 1600 nM; in data set [3], 12000 ± 600 nM; in data set [4], 10700 ± 1000 nM.

Take `C=C(C)[C@@H]1CC[C@]2(C(=O)N3CCN(C(=O)c4ccccc4-c4c5ccc(=[N+](CC)CC)cc-5oc5cc(N(CC)CC)ccc45)CC3)CC[C@]3(C)C(CCC4[C@@]5(C)CC[C@H](OC(C)=O)C(C)(C)C5CC[C@]43C)C12` (stereo partly drawn) [compound 13, 9-[2-[[4-(3β-Acetyloxy-28-oxo-lup-20(29)en-28-yl)-1-piperazinyl]carbonyl]phenyl]-3,6-bis(diethylamino)-xanthylium chloride]: the EC50 in data set [1] turned out to be 151 ± 22 nM; in the data set on A375 (melanoma), 90 ± 10 nM; in data set [2], 208 ± 34 nM; in data set [3], 50 ± 4 nM; in data set [4], 81 ± 5 nM.

For `CCN(CC)c1ccc2c(-c3ccccc3C(=O)N3CCN(C(=O)[C@]45CCC(C)(C)CC4C4=CCC6[C@@]7(C)CC[C@H](OC(C)=O)C(C)(C)C7CC[C@@]6(C)[C@]4(C)CC5)CC3)c3ccc(=[N+](CC)CC)cc-3oc2c1` (stereo partly drawn) [compound 14, 9-[2-[[4-(3β-Acetyloxy-28-oxo-olean-12-en-28-yl)-1-piperazinyl]carbonyl]phenyl]-3,6-bis(diethylamino)-xanthylium chloride], the concentration for a half-maximal effect (EC50) in data set [1] is 91 ± 10 nM; in the data set on A375 (melanoma), 90 ± 10 nM; in data set [2], 137 ± 6 nM; in data set [3], 32 ± 1 nM; in data set [4], 62 ± 4 nM.

As for `CCN(CC)c1ccc2c(-c3ccccc3C(=O)N3CCN(C(=O)[C@]45CC[C@@H](C)[C@H](C)C4C4=CCC6[C@@]7(C)CC[C@H](OC(C)=O)C(C)(C)C7CC[C@@]6(C)[C@]4(C)CC5)CC3)c3ccc(=[N+](CC)CC)cc-3oc2c1` (stereo partly drawn) [compound 15, 9-[2-[[4-(3β-Acetyloxy-28-oxo-ursan-12-en-28-yl)-1-piperazinyl]carbonyl]phenyl]-3,6-bis(diethylamino)-xanthylium chloride], the EC50 in data set [1] was 83 ± 7 nM; in the data set on A375 (melanoma), 40 ± 20 nM; in data set [2], 137 ± 9 nM; in data set [3], 38 ± 2 nM; in data set [4], 75 ± 5 nM.

In the case of `CCN(CC)c1ccc2c(-c3ccccc3C(=O)N3CCN(C(=O)[C@]45CC[C@@H](C(C)=O)C4C4CCC6[C@@]7(C)CC[C@H](OC(C)=O)C(C)(C)C7CC[C@@]6(C)[C@]4(C)CC5)CC3)c3ccc(=[N+](CC)CC)cc-3oc2c1` (stereo partly drawn) [compound 16, 9-[2-[[4-(3β-Acetyloxy-20,28-dioxo-30-norlupan-28-yl)-1-piperazinyl]carbonyl]phenyl]-3,6-bis(diethylamino)-xanthylium chloride], the EC50 in data set [1] was found to be 99 ± 16 nM; in the data set on A375 (melanoma) it was 80 ± 30 nM; in data set [2], 171 ± 6 nM; in data set [3] it was 36 ± 1 nM; in data set [4], 70 ± 2 nM.

For `C=C(C)[C@@H]1CC[C@]2(C(=O)N3CCCN(C(=O)c4ccccc4-c4c5ccc(=[N+](CC)CC)cc-5oc5cc(N(CC)CC)ccc45)CC3)CC[C@]3(C)C(CCC4[C@@]5(C)CC[C@H](OC(C)=O)C(C)(C)C5CC[C@]43C)C12` (stereo partly drawn) [compound 17, 9-[2-[[4-(3β-Acetyloxy-28-oxo-30-norlupan-28-yl)-1-homopiperazinyl]carbonyl]phenyl]-3,6-bis(diethylamino)-xanthylium chloride], the EC50 came to 280 ± 10 nM in data set [1]; 760 ± 90 nM in the data set with A375 (melanoma); 330 ± 70 nM in data set [2]; 220 ± 10 nM in data set [3]; 220 ± 20 nM in data set [4].

For the molecule `CCN(CC)c1ccc2c(-c3ccccc3C(=O)N3CCCN(C(=O)[C@]45CCC(C)(C)CC4C4=CCC6[C@@]7(C)CC[C@H](OC(C)=O)C(C)(C)C7CC[C@@]6(C)[C@]4(C)CC5)CC3)c3ccc(=[N+](CC)CC)cc-3oc2c1` (stereo partly drawn) [compound 18, 9-[2-[[4-(3β-Acetyloxy-28-oxo-olean-12-en-28-yl]-1-homopiperazinyl]carbonyl]phenyl]-3,6-bis(diethylamino)-xanthylium chloride], the EC50 is 40 ± 10 nM in data set [1]; 40 ± 10 nM in the data set on A375 (melanoma); 140 ± 20 nM in data set [2]; 20 ± 3 nM in data set [3]; 30 ± 4 nM in data set [4].

Regarding `CCN(CC)c1ccc2c(-c3ccccc3C(=O)N3CCCN(C(=O)[C@]45CC[C@@H](C)[C@H](C)C4C4=CCC6[C@@]7(C)CC[C@H](OC(C)=O)C(C)(C)C7CC[C@@]6(C)[C@]4(C)CC5)CC3)c3ccc(=[N+](CC)CC)cc-3oc2c1` (stereo partly drawn) [compound 19, 9-[2-[[4-(3β-Acetyloxy-28-oxo-urs-12-en-28-yl]-1-homopiperazinyl]carbonyl]phenyl]-3,6-bis(diethylamino)-xanthylium chloride], the EC50 came out at 500 ± 70 nM in data set [1]; 510 ± 50 nM in the data set with A375 (melanoma); 400 ± 30 nM in data set [2]; 450 ± 30 nM in data set [3]; 390 ± 40 nM in data set [4].

Take `CCN(CC)c1ccc2c(-c3ccccc3C(=O)N3CCCN(C(=O)[C@]45CC[C@@H](C(C)=O)C4C4CCC6[C@@]7(C)CC[C@H](OC(C)=O)C(C)(C)C7CC[C@@]6(C)[C@]4(C)CC5)CC3)c3ccc(=[N+](CC)CC)cc-3oc2c1` (stereo partly drawn) [compound 20, 9-[2-[[4-(3β-Acetyloxy-20,28-dioxo-30-norlupan-28-yl)-1-homopiperazinyl]carbonyl]phenyl]-3,6-bis(diethylamino)-xanthylium chloride]: the 50% effective concentration (EC50) in data set [1] worked out at 300 ± 27 nM; with A375 (melanoma), 240 ± 17 nM; in data set [2], 340 ± 56 nM; in data set [3], 120 ± 18 nM; in data set [4], 150 ± 50 nM.
